From paper PMC12196347, “Evaluating Triazole-Substituted Pyrrolopyrimidines as CSF1R Inhibitors” (Molecules, 2025) come the findings set out here.

Values after ≈ are worked out from the molar mass of the structure shown. Where only a bound is given, the exact number is not on record here.

Series [1] in a line: Mouse plasma protein binding. The format is in vitro ADME. The conditions noted are these: fraction bound, read-out: PPB (converted).
The test system of series [2] is KIT-positive cell line GIST-T1. The series can be described thus: GIST-T1 CellTiter-Glo cell viability assay. The class given is cell-based. The conditions noted are these: Homo sapiens, GISTT1; cellular proliferation, GIST-T1, 72 h. (In ATP-based viability assays light output follows the ATP content of the culture.)
A short description of a further series: MDCK permeability assay. The format is in vitro ADME, canine. The settings on record: dog, MDCK cell monolayer; for Papp A→B: A-B direction; for Papp B→A: B-A direction; for efflux ratio: read-out: Ratio Papp B > A/Papp A > B.
Another series has as its target T1, cKIT kinase (Homo sapiens, UniProt P10721).
T1 construct: purchased Carna Biosciences
The series can be described thus: KIT inhibition (KD), TR-FRET tracer displacement. The format is binding. The conditions noted are these: kinase tracer 236, anti-GST antibody Eu-conjugate, read-out: KIT enz. KD.

For series [3], the target named is CSF1R (Homo sapiens, UniProt P07333). In words: CSF1R enzymatic IC50, Z-LYTE assay platform. The class given is biochemical. The settings on record: for Hill coefficient: Z-LYTE CSF1R IC50 curve; for IC50: Z-LYTE, 10-point titrations in duplicates, ATP equal to KM ca. 10 µM, read-out: CSF1R enz. IC50.
Target sequence in this assay (P07333 20-972): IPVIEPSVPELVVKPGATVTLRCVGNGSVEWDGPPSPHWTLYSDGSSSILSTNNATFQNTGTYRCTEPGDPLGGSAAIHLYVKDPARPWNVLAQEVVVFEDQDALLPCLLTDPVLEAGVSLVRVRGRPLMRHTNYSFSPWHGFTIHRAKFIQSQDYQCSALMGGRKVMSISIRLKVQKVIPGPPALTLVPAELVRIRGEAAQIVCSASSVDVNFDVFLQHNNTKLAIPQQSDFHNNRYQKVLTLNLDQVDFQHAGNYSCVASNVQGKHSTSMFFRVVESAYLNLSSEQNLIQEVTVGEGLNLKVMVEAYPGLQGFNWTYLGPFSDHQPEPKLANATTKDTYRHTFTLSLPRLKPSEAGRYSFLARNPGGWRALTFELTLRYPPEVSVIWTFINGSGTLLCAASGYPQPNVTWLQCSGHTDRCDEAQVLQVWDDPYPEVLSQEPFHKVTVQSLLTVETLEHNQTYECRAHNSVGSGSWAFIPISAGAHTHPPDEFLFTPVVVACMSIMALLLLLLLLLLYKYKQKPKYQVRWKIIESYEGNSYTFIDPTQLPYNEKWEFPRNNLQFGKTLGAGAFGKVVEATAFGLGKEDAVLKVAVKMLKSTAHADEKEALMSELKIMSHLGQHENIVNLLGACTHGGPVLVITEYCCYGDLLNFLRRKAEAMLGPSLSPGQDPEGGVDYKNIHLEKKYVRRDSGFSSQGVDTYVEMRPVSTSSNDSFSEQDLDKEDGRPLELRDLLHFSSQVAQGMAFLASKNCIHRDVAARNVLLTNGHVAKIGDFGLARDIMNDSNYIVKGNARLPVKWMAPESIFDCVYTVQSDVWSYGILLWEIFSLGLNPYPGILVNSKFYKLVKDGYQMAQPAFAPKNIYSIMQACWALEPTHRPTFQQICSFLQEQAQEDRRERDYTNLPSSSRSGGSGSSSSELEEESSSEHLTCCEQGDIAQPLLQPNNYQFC
Series [4] can be described thus: Kinetic solubility, spectrophotometric. The class given is physicochemical. The settings on record: aqueous buffer, kinetic from dmso stock, spectrophotometrically at pH 7.4 in HEPES buffer.
The nature of series [5]: Mouse liver microsome intrinsic clearance, Phase I. The format is in vitro ADME. The settings on record: in vitro intrinsic clearance.
Series [6] deals with T2, CSF1R (Homo sapiens, UniProt P07333).
T2 sequence (P07333 539-972 limits assumed): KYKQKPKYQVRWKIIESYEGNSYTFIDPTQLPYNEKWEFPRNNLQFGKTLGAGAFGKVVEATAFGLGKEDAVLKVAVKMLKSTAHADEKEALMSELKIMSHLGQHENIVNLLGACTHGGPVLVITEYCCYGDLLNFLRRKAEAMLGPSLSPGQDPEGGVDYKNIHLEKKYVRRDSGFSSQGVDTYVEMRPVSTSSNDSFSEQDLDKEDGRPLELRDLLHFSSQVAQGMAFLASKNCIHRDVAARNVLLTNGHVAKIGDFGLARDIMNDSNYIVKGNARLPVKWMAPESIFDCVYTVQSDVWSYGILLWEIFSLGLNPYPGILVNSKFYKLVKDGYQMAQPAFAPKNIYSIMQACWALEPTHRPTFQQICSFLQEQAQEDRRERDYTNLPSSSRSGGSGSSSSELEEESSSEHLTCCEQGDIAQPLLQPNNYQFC
In words: CSF1R enzymatic inhibition, TR-FRET-based LANCE Ultra assay. The class given is biochemical. The settings on record: single 8-point titrations, ATP concentration 25 µM, read-out: Enz. IC50. A general note: Time-resolved FRET reads energy transfer from a long-lived donor to a nearby acceptor.

A short description of series [7]: Human liver microsome intrinsic clearance, Phase I. The format is in vitro ADME. The settings on record: in vitro intrinsic clearance. A general note: Liver microsomes are a subcellular fraction often used to study metabolism.
Series [8] relates to IL-3 dependent Ba/F3 cell line (CSF1R independent). In words: Control assay for cellular toxicity, Ba/F3 cells dependent on IL-3. The format is cell-based. The settings on record: Mus musculus, BaF3; Ba/F3 cells dependent on IL-3, control for cellular toxicity.
Another series has as its system CSF1R Ba/F3 cells. In words: Cell viability assay, Ba/F3 cells engineered to be dependent on CSF1R. The format is cell-based. The conditions noted are these: duplicate measurements.
The nature of series [9]: Caco-2 permeability assay. The format is in vitro ADME. The conditions noted are these: human; Caco-2 cell assay.
The mark [10] stands for this setting: Mus musculus, BaF3, Ba/F3 cells dependent on CSF1R.

T1 sequence (P10721 26-976): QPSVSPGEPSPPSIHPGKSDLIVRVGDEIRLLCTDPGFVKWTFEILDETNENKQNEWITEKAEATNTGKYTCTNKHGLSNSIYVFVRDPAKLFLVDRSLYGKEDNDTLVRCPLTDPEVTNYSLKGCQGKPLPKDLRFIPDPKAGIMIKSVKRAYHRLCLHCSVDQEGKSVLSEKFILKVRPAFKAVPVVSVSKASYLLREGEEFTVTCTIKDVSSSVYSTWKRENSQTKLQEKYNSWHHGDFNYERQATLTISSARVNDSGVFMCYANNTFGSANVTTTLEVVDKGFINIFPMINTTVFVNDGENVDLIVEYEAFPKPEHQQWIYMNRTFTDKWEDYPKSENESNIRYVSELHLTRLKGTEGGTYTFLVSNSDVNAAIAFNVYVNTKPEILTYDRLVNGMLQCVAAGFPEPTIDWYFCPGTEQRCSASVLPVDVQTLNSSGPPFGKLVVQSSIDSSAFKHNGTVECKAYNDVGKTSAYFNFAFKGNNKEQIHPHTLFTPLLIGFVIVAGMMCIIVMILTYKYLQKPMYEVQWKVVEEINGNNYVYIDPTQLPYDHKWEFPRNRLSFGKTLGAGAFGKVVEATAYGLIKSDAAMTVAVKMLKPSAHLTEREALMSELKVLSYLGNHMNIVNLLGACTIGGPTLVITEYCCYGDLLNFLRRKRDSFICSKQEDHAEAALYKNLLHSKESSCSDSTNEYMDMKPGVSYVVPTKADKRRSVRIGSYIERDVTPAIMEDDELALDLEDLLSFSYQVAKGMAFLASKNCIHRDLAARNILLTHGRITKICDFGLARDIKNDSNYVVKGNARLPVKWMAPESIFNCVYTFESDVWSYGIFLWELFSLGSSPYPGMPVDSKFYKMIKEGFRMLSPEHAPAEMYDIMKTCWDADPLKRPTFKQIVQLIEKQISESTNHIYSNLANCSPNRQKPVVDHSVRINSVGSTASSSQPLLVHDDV

As usually defined, the IC50 is the midpoint of a concentration-inhibition curve. In general, Papp A→B refers to the apparent permeability from the apical to the basolateral side of a cell layer. Usually Papp B→A stands for how fast a substance crosses the layer from the basolateral side. For orientation: Kd means the concentration at which binding is half-saturated. Broadly, the Hill coefficient is a measure of the steepness of the concentration-response curve. The term solubility (kinetic) denotes solubility judged after dilution from a stock solution rather than from solid. `COc1ccc(-n2cc(-c3cc4c(N(C)CC5CCOCC5)ncnc4[nH]3)nn2)cc1` [Compound 21b, 6-(1-(4-Methoxyphenyl)-1H-1,2,3-triazol-4-yl)-N-methyl-N-((tetrahydro-2H-pyran-4-yl)methyl)-7H-pyrrolo[2,3-d]pyrimidin-4-amine]: the fraction unbound in series [1] is 0.24. The IC50 was greater than 30000 nM in series [2]; 1.2 ± 0.3 nM on CSF1R [3]; 3 nM at CSF1R [6]; greater than 10 µM in series [8]; 600 ± 200 nM in the series with CSF1R Ba/F3 cells (setting [10]). For the same compound, the Papp A→B in “MDCK permeability assay” was found to be 10.7 ×10⁻⁶ cm/s. In the series “MDCK permeability assay”, this compound displayed a Papp B→A of 13.6 ×10⁻⁶ cm/s. For the same compound, the efflux ratio in the series “MDCK permeability assay” was found to be 1.3. In addition, at cKIT kinase, the Kd is greater than 1000 nM. Also, at CSF1R [3], the Hill coefficient is 0.913. In series [4], this compound gave a solubility (kinetic) of 7.3 µM (≈ 3.06 µg/mL). Also, in series [5], the MLM was 288 µL/min/mg. In series [7], this compound yielded an HLM of 74.5 µL/min/mg.
`Cc1ccc(Cn2cc(-c3cc4c(N(C)CC5CCOCC5)ncnc4[nH]3)nn2)cc1` [Compound 25b, N-Methyl-6-(1-(4-methylbenzyl)-1H-1,2,3-triazol-4-yl)-N-((tetrahydro-2H-pyran-4-yl)methyl)-7H-pyrrolo[2,3-d]pyrimidin-4-amine]: the fraction unbound in series [1] was 0.025. In addition, the IC50 in [2] is greater than 3000 nM; at CSF1R [3] it was 1.3 nM; at CSF1R [6] it was less than 1 nM; in [8] it was greater than 10 µM; with CSF1R Ba/F3 cells (Ba/F3 cells dependent on CSF1R), 500 nM; in the series with CSF1R Ba/F3 cells (setting [10]) it was 1000 nM. In the series “MDCK permeability assay”, this compound registered a Papp A→B of 10 ×10⁻⁶ cm/s. The same compound yielded a Papp B→A in the series “MDCK permeability assay” of 25.4 ×10⁻⁶ cm/s. In the series “MDCK permeability assay”, the efflux ratio came out at 2.6. Moreover, the Kd at cKIT kinase was greater than 100 nM. Further, the Hill coefficient on CSF1R [3] turned out to be 0.981. Also, the solubility (kinetic) in series [4] stood at 10.6 µM (≈ 4.43 µg/mL). Further, the MLM in series [5] was determined as 1980 µL/min/mg. This compound also showed an HLM in [7] of 62.4 µL/min/mg.
Consider `CN(CC1CCOCC1)c1ncnc2[nH]c(-c3cn(Cc4cccnc4)nn3)cc12` [Compound 27b, N-Methyl-6-(1-(pyridin-3-ylmethyl)-1H-1,2,3-triazol-4-yl)-N-((tetrahydro-2H-pyran-4-yl)methyl)-7H-pyrrolo[2,3-d]pyrimidin-4-amine], for which the fraction unbound in [1] is less than 0.01. This compound also gave a kinetic solubility in series [4] of 43 µM (≈ 17.4 µg/mL). In addition, the IC50 on CSF1R [6] was 1.8 nM; in series [8], greater than 10 µM; in the series with CSF1R Ba/F3 cells (setting [10]), 1700 ± 100 nM.
The compound `Cc1cccc(CN(C)c2ncnc3[nH]c(-c4cn(C5CCN(C)CC5)nn4)cc23)c1` [Compound 30a, N-Methyl-N-(3-methylbenzyl)-6-(1-(1-methylpiperidin-4-yl)-1H-1,2,3-triazol-4-yl)-7H-pyrrolo[2,3-d]pyrimidin-4-amine] gave a solubility (kinetic) in [4] of 51 µM (≈ 21.2 µg/mL). The IC50 was less than 1 nM on CSF1R [6], greater than 10 µM in [8] and 1100 ± 100 nM with CSF1R Ba/F3 cells (setting [10]).
In series [4], `CN1CCC(n2cc(-c3cc4c(N(C)CC5CCOCC5)ncnc4[nH]3)nn2)CC1` [Compound 30b, N-Methyl-6-(1-(1-methylpiperidin-4-yl)-1H-1,2,3-triazol-4-yl)-N-((tetrahydro-2H-pyran-4-yl)methyl)-7H-pyrrolo[2,3-d]pyrimidin-4-amine] yielded a solubility (kinetic) of 42 µM (≈ 17.2 µg/mL). Further, the IC50 was less than 1 nM at CSF1R [6], greater than 10 µM in series [8] and 2400 ± 500 nM in the series on CSF1R Ba/F3 cells (setting [10]).
The corresponding values for `Cc1cccc(CN(C)c2ncnc3[nH]c(-c4cn(CC5CCOCC5)nn4)cc23)c1` [Compound 31a, N-Methyl-N-(3-methylbenzyl)-6-(1-((tetrahydro-2H-pyran-4-yl)methyl)-1H-1,2,3-triazol-4-yl)-7H-pyrrolo[2,3-d]pyrimidin-4-amine] are 2.5 µM (≈ 1.04 µg/mL), less than 1 nM, greater than 10 µM and 2700 ± 1000 nM.
The corresponding values for `CN(CC1CCOCC1)c1ncnc2[nH]c(-c3cn(CC4CCOCC4)nn3)cc12` [Compound 31b, N-Methyl-N-((tetrahydro-2H-pyran-4-yl)methyl)-6-(1-((tetrahydro-2H-pyran-4-yl)methyl)-1H-1,2,3-triazol-4-yl)-7H-pyrrolo[2,3-d]pyrimidin-4-amine] are 45 µM (≈ 18.5 µg/mL), less than 1 nM, greater than 10 µM and 1000 ± 200 nM.
For `FC(F)(F)c1ccc(CNc2ccc(Cc3c[nH]c4ncc(Cl)cc34)cn2)cn1` [PLX-3397, pexidartinib, reference compound], the fraction unbound in series [1] was less than 0.01. The IC50 in series [2] is 30 nM; in series [8], greater than 10 µM; with CSF1R Ba/F3 cells (setting [10]), 60 ± 100 nM. The same compound returned a Hill coefficient at CSF1R [3] of 1.18.
In series [9], `Cc1cccc(CN(C)c2ncnc3[nH]c(-c4ccc(CO)cc4)cc23)c1` [Structure III] came in with a Papp A→B of 0.69 ×10⁻⁶ cm/s and a Papp B→A of 0.19 ×10⁻⁶ cm/s.
Consider `CN(CC1CCOCC1)c1ncnc2[nH]c(-c3ccc(N)cc3)cc12` [Structure IV, reference compound], for which the fraction unbound in series [1] is 0.236.
